For assay [1], the system named is C. elegans VC3631 (mev-1 gk3613, D19 resistant). As to the kind of experiment: IC50 on CID 2747322 resistant C. elegans strain VC3631. It counts as in vivo, Caenorhabditis elegans. The following applies: Caenorhabditis elegans, 120 h; 5 days exposure, 2 L4 per well, three biological replicates. How it is done:
(§1) All compound libraries were stored in 96-well plates, with 80 drugs per plate (columns 1 and 12 left empty). A BioGrid BG600 pinning robot (Digilab / BioRobotics) was used for compound transfer. The robot uses a 96-pin tool (0.7 mm dia.) to transfer a nominal volume of 340 nL of compound. For retesting, compounds were hand pinned from the original library plates to assay plates using a single 0.7 mm dia. pin. The assay plates were 96-well clear flat-bottom microplates containing 2% χ1666 E.coli bacteria in 0.5X Liquid Nematode Growth Media (LNGM) plus cholesterol (Bacteria were mass-grown in rich media, and harvested by centrifugation to produce a thick paste of bacterial cells that was kept frozen at -20°C. Cells were resuspended at 2% W/V in 0.5X LNGM to produce liquid worm food). Using a COPAS Biosort (Union Biometrica), two L4 to young adult stage VC2010 worms were added to each well of the plate in a final volume of 45 μL. After five days of exposure to the compounds, the plates were scanned and the data analyzed. A five day time period was chosen to be able to observe effects over all stages of the life cycle and through at least one round of replication. The initial proof-of-principle primary screen was performed manually using a dissecting microscope. Phenotypes scored included decreased motility, reduced brood size, and/or death as described previously. For high throughput screening of the Chembridge and Maybridge compound libraries we used the program WormScan, which was adapted for screening 96-well flat-bottom LNGM plates. Using WormScan it was possible to screen four 96-well plates at a time. Plates were scanned twice, at a resolution of 1200 dots per inch, 16-bit grayscale, producing a jpeg image. The light intensity produced by the scanner was sufficient to cause negative phototaxis equivalent to a physical stimulus for mortality determination. The time required to scan four 96-well plates using an Epson Perfection V700 Photo Scanner was less than ten minutes. The time to screen a single plate was less than 1.2 minutes, with less than ten seconds between scans.
(§2) WormScan was used to screen for the same phenotypes as in the manual screen (reduced brood size, reduced behavior/motility response and increased mortality). Two sequential scans for each 96-well plate were aligned to a reference region of interest (ROI). Image analysis was based on a difference image score calculated for each ROI. The difference image score (WormScan score) was normalized using a “percent of control” method to derive a normalized WormScan score. […] Wild-type growth in 1% DMSO (Fig 1A) results in a normalized WormScan score of 100. Exposure to 50 nM ivermectin gives a score of 0 (Fig 1C), and complete absence of worms gives a score of 0 (Fig 1D). For the primary screen the WormScan score was calculated using custom macro scripts written for Fiji. For secondary screening and any subsequent studies the WormScan score was calculated using a standalone Java program (See supplemental). Probit regression of mortality was calculated using Mathematica 8.0.
A standard ethyl methanesulfonate (EMS) mutagenesis protocol was carried out using VC2010 in order to generate mutants resistant to CID 2747322 exposure. First larval stage (L1) F2 progeny of mutagenized P0s were exposed to CID 2747322 at 200 μM in liquid worm food in 24-well tissue culture plates for five days at room temperature, and two independently isolated resistant lines (VC3614 and VC3615) were identified. […]

Assay [2] relates to C. elegans VC2010 (wild type). As to the kind of experiment: WormScan screen of C. elegans growth, fecundity, motility and mortality. It counts as in vivo, Caenorhabditis elegans. The settings on record: Caenorhabditis elegans, 120 h, 5 days exposure. The procedure:
as §1, §2

For assay [3], the system named is C. elegans RB2119 (acr-23(ok2804), monepantel-resistant). As to the kind of experiment: IC50 on amino-acetonitrile resistant C. elegans strain. Type of assay: in vivo, Caenorhabditis elegans. The following applies: Caenorhabditis elegans, 120 h; 5 days exposure, 2 L4 per well, three biological replicates; read-out: IC50, strain RB2119 (amino-acetonitriles).
In assay [4] the test system is S. cerevisiae yeast strain BY4743. As to the kind of experiment: Yeast growth rate (OD600) dose titration. Type of assay: cell-based. The settings on record: Saccharomyces cerevisiae; BY4743, YPD, growth rate reduced by 50%. How it is done:
The S. cerevisiae yeast strain BY4743 (MATa/α his3Δ1/his3Δ1 leu2Δ0/leu2Δ0 LYS2/lys2Δ0 met15Δ0/MET15 ura3Δ0/ura3Δ0) was used for all yeast experiments and was grown using yeast extract peptone dextrose (YPD) media at pH 7 [52]. BY4743 was grown overnight to initial log phase and was then grown with the compound identified in the C. elegans assay. The growth rate was quantified by continuously monitoring the optical density of the liquid yeast growth at OD600. The compound was screened in a dose-titration in YPD as described. The IC50 was the concentration required to reduce the growth rate or Average G value by 50% compared to a vehicle control (2% DMSO).

The test system of assay [5] is Human embryonic kidney (HEK293) cells. Briefly: HEK293 viability, MTT colorimetric assay. Type of assay: cell-based. The settings on record: Homo sapiens, read-out: Mammalian IC50. The procedure: Potential anthelmintic compounds identified from primary screening were further tested against mammalian cells and yeast to determine whether they had deleterious effects in those organisms. Human embryonic kidney (HEK293) cells were grown in Dulbecco’s Modified Eagle’s Medium (DMEM; Sigma) containing 5% fetal bovine serum (FBS; Sigma) in 96-well plates tissue culture plates. Compounds were added 24h post-plating at 10, 30, 100, or 300 μM final concentrations. Dimethyl sulfoxide (DMSO) was used as a negative control at 0.1%. Cells were treated for 24 or 48 hours, after which time viability was assessed using a 3-(4,5-dimethylthiazol-2-yl)-2,5-diphenyltetrazolium bromide (MTT) colorimetric assay. Percent viability was determined by comparing treatment values to DMSO control values.

Where two headings read alike, the source gives them in different places. Bounds are passed on as bounds.

As to `COc1ccc(OCCNC(=O)c2ccccc2C(F)(F)F)cc1` [CID 2747322, N-[2-(4-methoxyphenoxy)ethyl]-2-(trifluoromethyl)benzamide], the IC50 (in general, the concentration that gives 50% inhibition) in assay [1] is more than 500 µM; in assay [2] (2 L4 per well, three biological replicates, read-out: IC50, strain VC2010 (wild type)), 18 µM; in assay [2] (C. elegans, read-out: Nematode IC50), 18 µM; in assay [3] it was 5 µM; in assay [4], more than 1000 µM; in assay [5] it was 171 µM.

Source of the values: publication PMC5068747, “Using C. elegans Forward and Reverse Genetics to Identify New Compounds with Anthelmintic Activity” (PLoS Neglected Tropical Diseases, 2016).
